Reference: patent publication US20240316079A1, “USE OF AKR1C3-ACTIVATED COMPOUND” (OBI PHARMA, INC., priority 2021, published 2024)

What was measured:
recombinant human AKR1C3 = biological target: T1, recombinant human AKR1C3 (Homo sapiens, UniProt P42330); assay: AKR1C3-dependent activation of 3424 (2660 production, LC-MS/MS); type: biochemical; details: incubation with AKR1C3, n = 3, mean ± SD
T1 construct: purchased Abcam (Cambridge, MA)
T1 sequence (P42330 1-323): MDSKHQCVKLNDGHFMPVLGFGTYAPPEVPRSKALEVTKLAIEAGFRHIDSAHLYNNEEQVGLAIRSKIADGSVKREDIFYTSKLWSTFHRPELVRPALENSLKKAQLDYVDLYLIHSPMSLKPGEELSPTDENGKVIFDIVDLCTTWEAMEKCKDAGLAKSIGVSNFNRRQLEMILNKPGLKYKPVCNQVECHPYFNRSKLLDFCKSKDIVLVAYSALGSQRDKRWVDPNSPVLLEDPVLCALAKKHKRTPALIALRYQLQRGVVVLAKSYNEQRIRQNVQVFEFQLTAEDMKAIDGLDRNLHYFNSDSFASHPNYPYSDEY
Experimental: The reaction was incubated at 25° C. and terminated at various time points by adding acetonitrile and methanol (at a ratio of 9 to 1) and subjected for LC-MS/MS analysis. For enzyme kinetic analysis, the activity was determined with a SpectraMax M2^e spectrophotometer (Molecular Devices, LLC, San Jose, CA) by measuring the decrease in absorbance of the NADPH at 340 nm (E=6270 M^−1 cm^−1). After the initiation of the reaction by addition of substrates, the reactions were monitored at 30 s intervals at 25° C. The non-substrate reaction rate was also monitored as background and its slope was used to determine the initial velocity of the reaction. The kinetic data reported were the average of triplicate measurements. For AKR1C3-mediated 3424 metabolism, LC/MS/MS was performed using a Sciex API-4000 Qtrap (ABSciex, LLC, Framingham, MA) mass spectrometer coupled to an Agilent 1200 HPLC system (Agilent Technologies, Santa Clara, CA). […] The column oven temperature was 40° C. and the sample injection volume was 2 μL. The mass spectra were obtained in positive MRM mode. In positive ion mode, the ion spray voltage was set at 4500 V, declustering potential at 80 V, collision energy at 20 V, source temperature at 350° C., curtain gas at 10 psi and the source gas 1 and 2 both at 60 psi. […] For 2660 analysis, normal phase liquid chromatographic separation was performed with Waters Atlantis HILIC Silica column (2.1 mm×100 mm, 3 μm, Waters Corp., Milford, MA) in a total run time of 9 min using a flow rate of 0.3 mL/min. The mobile phase A consisted of 1 mM ammonium formate in water and mobile phase B using ACN. […] The column oven temperature was 40° C. and the sample injection volume was 2 μL. The mass spectra were obtained in negative MRM mode. In negative ion mode, the ion spray voltage was set at −4500 V, declustering potential at −60 V, collision energy at −30 V, source temperature at 350° C., curtain gas at 10 psi and the source gas 1 and 2 both at 60 psi. […] The peak area ratio for each MRM transition (peak area of analyte/peak area of analyte-IS) of calibration standards and samples were used for quantitative analysis using Analyst 1.6 software (ABSciex, Framingham, MA).

recombinant human AKR1C1 = biological target: T2, recombinant human AKR1C1 (Homo sapiens, UniProt Q04828); assay: Incubation of 3424 with AKR1C1 (2660 production, LC-MS/MS); type: biochemical
T2 construct: purchased Sigma
T2 sequence (Q04828 whole entry): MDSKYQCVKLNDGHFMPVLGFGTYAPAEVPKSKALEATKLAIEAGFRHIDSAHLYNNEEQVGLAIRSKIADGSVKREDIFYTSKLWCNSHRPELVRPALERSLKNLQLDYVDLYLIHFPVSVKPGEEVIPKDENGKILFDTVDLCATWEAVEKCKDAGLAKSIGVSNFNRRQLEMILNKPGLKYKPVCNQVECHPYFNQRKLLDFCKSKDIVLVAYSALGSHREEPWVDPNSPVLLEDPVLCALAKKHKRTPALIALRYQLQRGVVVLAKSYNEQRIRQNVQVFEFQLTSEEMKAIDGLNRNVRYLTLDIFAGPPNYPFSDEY

recombinant human AKR1C4 = biological target: T3, recombinant human AKR1C4 (Homo sapiens, UniProt P17516); assay: Incubation of 3424 with AKR1C4 (2660 production, LC-MS/MS); type: biochemical
T3 construct: purchased Sigma
T3 sequence (P17516 whole entry): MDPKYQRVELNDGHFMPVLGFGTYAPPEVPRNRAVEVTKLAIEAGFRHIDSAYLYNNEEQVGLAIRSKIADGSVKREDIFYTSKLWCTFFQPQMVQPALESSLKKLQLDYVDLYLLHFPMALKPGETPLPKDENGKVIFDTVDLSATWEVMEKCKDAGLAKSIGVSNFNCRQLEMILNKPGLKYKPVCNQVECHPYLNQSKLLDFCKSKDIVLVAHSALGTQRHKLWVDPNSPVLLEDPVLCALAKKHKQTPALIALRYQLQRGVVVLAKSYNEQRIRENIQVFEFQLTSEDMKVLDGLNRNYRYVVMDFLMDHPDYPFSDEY

SNU-475 = assay: In vitro proliferation assay, liver cancer cell line SNU-475; type: cell-based; details: Homo sapiens, 96 hours of drug exposure, AKR1C3 protein high, read-out: 3424 IC50
Experimental: (§1) IC50 was calculated as described above.

PLC/PRF/5 = assay: In vitro proliferation assay, liver cancer cell line PLC/PRF/5; type: cell-based; details: Homo sapiens, 96 hours of drug exposure, AKR1C3 protein Medium, read-out: 3424 IC50
Experimental: as §1

HLE = assay: In vitro proliferation assay, liver cancer cell line HLE; type: cell-based; details: Homo sapiens, 96 hours of drug exposure, AKR1C3 protein Medium, read-out: 3424 IC50
Experimental: as §1

HuCCT1 = assay: In vitro proliferation assay, liver cancer cell line HuCCT1; type: cell-based; details: Homo sapiens, HuCCT-1, 96 hours of drug exposure, AKR1C3 protein Low, read-out: 3424 IC50
Experimental: as §1

SNU-182 = assay: In vitro proliferation assay, liver cancer cell line SNU-182; type: cell-based; details: Homo sapiens, 96 hours of drug exposure, AKR1C3 protein Low, read-out: 3424 IC50
Experimental: as §1

NCI-H2228 = assay: In vitro proliferation assay, NSCLC cell line NCI-H2228; type: cell-based, human
Experimental: as §1

NCI-H1563 = assay: In vitro proliferation assay, NSCLC cell line NCI-H1563; type: cell-based; details: Homo sapiens, 72 hours of drug exposure, read-out: 3424 IC50
Experimental: as §1

NCI-H2110 = assay: In vitro proliferation assay, NSCLC cell line NCI-H2110; type: cell-based; details: Homo sapiens, 72 hours of drug exposure, read-out: 3424 IC50
Experimental: as §1

NCI-H1792 = assay: In vitro proliferation assay, NSCLC cell line NCI-H1792; type: cell-based; details: Homo sapiens, 72 hours of drug exposure, read-out: 3424 IC50
Experimental: as §1

NCI-H23 = assay: In vitro proliferation assay, NSCLC cell line NCI-H23; type: cell-based; details: Homo sapiens, 72 hours of drug exposure, read-out: 3424 IC50
Experimental: as §1

PA1280 PDX = assay: Pancreatic cancer PDX model PA1280; type: in vivo, mice
Experimental: (§2) Anti-tumor activity of 3424 in PDX models was assessed at CrownBio Bioscience (Beijing, China) Inc. using female BALB/c nude mice (6-7 weeks old, Beijing Anikeeper Biotech Co., Ltd, Beijing, China). Tumor fragments (PA1280, GA6201, LU2057 and LU2505) from stock mice inoculated with selected primary human cancer tissues (pancreatic, gastric cancer, and lung) were harvested and used for inoculation into BALB/c nude mice. Each mouse was inoculated subcutaneously for tumor development. Mice were allocated randomly into experimental groups when the average tumor size reached ˜100 mm^3) by using StudyDirector™ Ver 3.1.399.19 (Studylog Systems, Inc., S. San Francisco, CA, USA). Prodrug 3424 was administered IV at the indicated doses with a regimen of Q7D×3. Each group consisted of 5-6 mice. The grouping day was denoted as Day 0. Prodrug 3424 was administrated to the tumor-bearing mice from Day 0 through Days as indicated for each study.

LU2505 PDX = assay: Lung cancer PDX model LU2505 (higher AKR1C3); type: in vivo, mice
Experimental: as §2

Q: For `C[C@H](OP(=O)(N1CC1)N1CC1)c1ccc([N+](=O)[O-])c(Oc2cccc(C(=O)N(C)C)c2)c1` [Compound 3424, (S)-1-(3-(3-N,N-dimethylaminocarbonyl)phenoxyl-4-mtrophenyl)-1-ethyl-N,N′-bis(ethylene)phosphoramidate], which “2660 Concentration” value (recombinant human AKR1C3; 3424 concentration 10 μM) is on record?
A: Its value is 10.71 ± 0.53 µM.

Q: And the “2660 Concentration” value (recombinant human AKR1C3; 3424 concentration 20 μM)?
A: The value was 14.77 ± 1.44 µM.

Q: What about the “2660 Concentration” value (recombinant human AKR1C3; 3424 concentration 30 μM) of the same compound?
A: The value was 33.96 ± 1.90 µM.

Q: What about the “2660 Concentration” value (recombinant human AKR1C3; 3424 concentration 40 μM) of the same compound?
A: The value was 34.30 ± 6.63 µM.

Q: And the “2660 Concentration” value (recombinant human AKR1C3; 3424 concentration 50 μM)?
A: The value was 34.59 ± 7.44 µM.

Q: And the “metabolism by AKR1C1” value (recombinant human AKR1C1)?
A: The value was “not metabolized”.

Q: What about the “2660 Concentration” value (recombinant human AKR1C1; 3424 concentration 50 μM, incubation with AKR1C1, BQL: below quantification limit (0.25 ng/mL)) of the same compound?
A: Its value is “BQL”.

Q: What about the “metabolism by AKR1C4” value (recombinant human AKR1C4) of the same compound?
A: The value was “not metabolized”.

Q: What about the “2660 Concentration” value (recombinant human AKR1C4; 3424 concentration 50 μM, incubation with AKR1C4, BQL: below quantification limit (0.25 ng/mL)) of the same compound?
A: The value was “BQL”.

Q: What about the IC50 (SNU-475) of the same compound?
A: The IC50 was 15 nM.

Q: What about the IC50 (PLC/PRF/5) of the same compound?
A: Its IC50 is 167 nM.

Q: What about the IC50 (HLE) of the same compound?
A: Its IC50 is 113 nM.

Q: What about the IC50 (HuCCT1) of the same compound?
A: Its IC50 is 696 nM.

Q: And the IC50 (SNU-182)?
A: The IC50 was over 1000 nM.

Q: And the IC50 (NCI-H2228; Homo sapiens, NCI-H2228, 72 hours of drug exposure, read-out: 3424 IC50)?
A: Its IC50 is 0.21 nM.

Q: And the “enhanced cytotoxicity in line expressing high AKR1C3 versus low/no AKR1C3” value (NCI-H2228; NCI-H2228 NSCLC line)?
A: Its value is “up to 5000 fold”.

Q: What about the IC50 (NCI-H1563) of the same compound?
A: Its IC50 is 2.5 nM.

Q: And the IC50 (NCI-H2110)?
A: Its IC50 is 1.1 nM.

Q: And the IC50 (NCI-H1792)?
A: Its IC50 is 4.5 nM.

Q: And the IC50 (NCI-H23)?
A: The IC50 was over 1000 nM.

Q: What about the TGI (PA1280 PDX; 3424 2.5 mg/kg i.v. Q7D × 3) of the same compound?
A: Its TGI is 77.4%.

Q: And the “tolerability / body weight loss” value (PA1280 PDX; PA1280, all tested doses)?
A: Its value is “no body weight loss”.

Q: And the TGI (LU2505 PDX; 3424 1.25 mg/kg i.v. Q7D × 3)?
A: Its TGI is 105.0%.

Q: And the TGI (LU2505 PDX; 3424 2.5 mg/kg i.v. Q7D × 3)?
A: The TGI was 105.2%.

Q: What about the TGI (LU2505 PDX; 3424 5 mg/kg i.v. Q7D × 3) of the same compound?
A: Its TGI is 105.2%.

Q: And the “tolerability / body weight loss” value (LU2505 PDX; LU2505, all tested doses)?
A: The value was “no body weight loss”.
